# Data taken from PMC12406255, “Engineering Peptide Modulators for T‑Cell Migration by Structural Scaffold Matching” (Journal of Medicinal Chemistry, 2025).
# Where two headings read alike, the source gives them in different places. Positions of bridges follow the written chain, without caps; N, C: chain ends. Non-standard residues stand in square brackets, D forms with d. Residues, ends and D or L forms follow the SMILES beside them. Nle = CCCC[C@H](N)C(=O)O
# Columns and labels:
# Format in all cases: cell-based, human
# [1] = system: CD8+ lymphocytes (CD3+, CD8+); conditions: for % Inhibition of cell migration compared to control, CD8+: normalized to untreated control, mean ± SEM of 4-6 experiments
# Method: (§1) Transwell migration assays were performed similarly as published previously. HMEC-1 cells were seeded at a density of 75,000 cells per well in transwell inserts. Three days after cell seeding, the medium was changed, and the cells were stimulated with 100 ng/mL TNF-α and 20 ng/mL IFN-γ for 16–18 h. On the day of the assay, cells were washed with migration medium (serum-free RPMI medium supplemented with 0.1% BSA) to remove residual cytokines and starved for at least 1 h at 37 °C in migration medium. PBMC were starved for at least 1.5 h in migration medium before addition to the EC. For S1P and lifitegrast-treated samples, the PBMC were preincubated for at least 1.5 h at 37 °C with the ligands before addition to the EC. Pepitem and other peptides were added onto the EC monolayer and preincubated for 15–30 min at 37 °C before the addition of the PBMC. 200,000 PBMC per well were added directly on top of the EC prestimulated with pepitem or other peptides to reach a final volume of 150 μL in the donor compartments. The receiver compartments of the wells were filled with 600 μL RPMI with 20% FBS. After 4 h of migration at 37 °C, the receiver compartment with the migrated cells was collected. The migrated cells were stained with the indicated antibodies: CD3-APC (clone: OKT3, lot: B400127), CD4-PE (clone: OKT4. lot: B379180), CD8-FITC (clone: HIT8a, lot: B370193) from Biolegend and CD3-VioGreen (clone: REA613, lot: 5240502518), CD45RO-FITC (clone: REA611, lot: 5240502519), CD4-PerCP-Vio700 (clone: REA623, lot: 5240506702), CXCR3 PE-Vio615 (clone: REA232, lot: 5240506722), CD196-APC (clone: REA190, lot: 5240506717), CD8-APC-Vio770 (clone: REA734, lot: 5240303993) and CD45RO-PEVio616 (clone: REA611, lot: 5231102514) from Miltenyi Biotec (Bergisch Gladbach, Germany) and counted using precision counting beads (Biolegend) on a CytoflexS flow cytometer (BeckmanCoulter). Data was analyzed using CytExpert (Version 2.4). T cells were gated as CD3^+ cells, T cell subsets were gated as CD4^+ (CD3^+, CD4^+), CD8^+ (CD3^+, CD8^+), memory CD4^+ (CD3^+, CD4^+, CD45RO^+), memory CD8^+ (CD3^+, CD8^+, CD45RO^+) and Th1 cells (CD3^+, CD4^+, CXCR3^+, CCR6^–).
# (§2) Data were analyzed using GraphPad Prism software. EC50 values were calculated by three-parameter nonlinear regression analysis. For this, the data points were normalized to the number of migrated cells in untreated (buffer) control samples (100%), and the regression was fitted with the top constraint to 100 and the slope fixed to 1. Statistical significance is indicated in graphs as n.s. not significant, * p < 0.05; ** p < 0.01; *** p < 0.001. The statistical tests used are indicated in the respective figure captions.
# [2] = system: CD4+ lymphocytes (CD3+, CD4+); conditions: for % Inhibition of cell migration compared to control, CD4+: normalized to untreated control, mean ± SEM of 4-6 experiments
# Method: as §1, §2
# [3] = system: memory CD8+ cells (CD3+, CD8+, CD45RO+); conditions: for % Inhibition of cell migration compared to control, Memory CD8+: normalized to untreated control, mean ± SEM of 4-6 experiments
# Method: as §1, §2
# [4] = system: memory CD4+ cells (CD3+, CD4+, CD45RO+); conditions: for % Inhibition of cell migration compared to control, Memory CD4+: normalized to untreated control, mean ± SEM of 4-6 experiments
# Method: as §1, §2
# [5] = from the concentration-response experiment
structure (smiles),measurement,setting,value
"CCCC[C@@H]1NC(=O)[C@H](C(C)C)NC(=O)[C@H](CCCCN)NC(=O)[C@@H](NC(=O)[C@H](CCC(N)=O)NC(=O)[C@H](CCC(=O)O)NC(C)=O)CSSC[C@@H](C(=O)N[C@@H](CCC(=O)O)C(=O)N[C@@H](CCCCN)C(N)=O)NC(=O)[C@H](CC(N)=O)NC(=O)[C@H](CC(=O)O)NC(=O)[C@H](CC(C)C)NC(=O)[C@@H]2CSSC[C@H](NC1=O)C(=O)N[C@@H](Cc1ccc(O)cc1)C(=O)N[C@@H](C)C(=O)N[C@@H](CCC(N)=O)C(=O)NCC(=O)N[C@@H](C)C(=O)N[C@@H](CCC(=O)O)C(=O)N[C@@H](CC(C)C)C(=O)N1CCC[C@H]1C(=O)N[C@@H](CCC(=O)O)C(=O)N[C@@H](CC(C)C)C(=O)N[C@@H](CC(C)C)C(=O)N[C@@H](CCCNC(=N)N)C(=O)N[C@@H](CCCNC(=N)N)C(=O)N2 [VhTI-pep 2] (Ac-EQCKV[Nle]CYAQGAELPELLRRCLDNCEK-NH2; disulfide 3-25, 7-21)","% Inhibition of cell migration compared to control, CD8+",[1]; 0.1 μM,37.0 ± 6.4%
same,"% Inhibition of cell migration compared to control, CD8+",[1]; 1 μM,41.7 ± 8.5%
same,EC50,"[1]; EC monolayer pretreated with peptide, healthy-donor PBMC, 4 h, mean ± SD, 4 independent measurements, read-out: EC50, inhibition of CD8+ cell migration",7.7 ± 11.4 nM
same,"maximal effect of inhibition of cell migration, CD8+ lymphocytes",[1]; [5],40.0 ± 2.8%
same,"% Inhibition of cell migration compared to control, CD4+",[2]; 0.1 μM,34.3 ± 8.0%
same,"% Inhibition of cell migration compared to control, CD4+",[2]; 1 μM,33.2 ± 6.1%
same,EC50,"[2]; EC monolayer pretreated with peptide, healthy-donor PBMC, 4 h, mean ± SD, 4 independent measurements, read-out: EC50, inhibition of CD4+ cell migration",10.5 ± 15.9 nM
same,"maximal effect of inhibition of cell migration, CD4+ lymphocytes",[2]; [5],39.9 ± 12.5%
same,"% Inhibition of cell migration compared to control, Memory CD8+",[3]; 0.1 μM,23.0 ± 6.9%
same,"% Inhibition of cell migration compared to control, Memory CD8+",[3]; 1 μM,21.9 ± 8.1%
same,EC50,"[3]; EC monolayer pretreated with peptide, healthy-donor PBMC, 4 h, mean ± SD, 4 independent measurements, read-out: EC50, inhibition of memory CD8+ cell migration",6.3 ± 9.7 nM
same,"% Inhibition of cell migration compared to control, Memory CD4+",[4]; 0.1 μM,34.4 ± 16.7%
same,"% Inhibition of cell migration compared to control, Memory CD4+",[4]; 1 μM,31.5 ± 10.4%
same,EC50,"[4]; EC monolayer pretreated with peptide, healthy-donor PBMC, 4 h, mean ± SD, 4 independent measurements, read-out: EC50, inhibition of memory CD4+ cell migration",9.8 ± 16.5 nM
